# Counter-ions that a name gives are not always drawn. Like-named read-outs stand apart in the source and are kept apart here.
# Legend:
# [1] = test system: blood flow of optic nerve head induced by intravitreous injection of ET-1; experiment: Effect of topical instillation on the ET-1-induced decrease in optic nerve head blood flow (hydrogen clearance method); type: in vivo, Male Dutch pigmented rabbits; settings: versus physiological saline in contralateral eye; 30 to 120 minutes after ET-1 injection; paired t-test; n=6
# Protocol: The effect of topically applied amosulalol hydrochloride on the blood flow of optic nerve head induced by intravitreous injection of ET-1 in pigmented rabbits.
# Male Dutch pigmented rabbits weighing about 2 kg were purchased from Fukusaki Rabbit Farmers Association and used after confirmation of absence of ocular abnormality. The rabbits were housed at 23 ±3 °C and 55±10% R.H. and put on a ration of 100 g/day of rabbit chow (Labo R Stock, Nippon Nosan Kogyo K.K.) with free access to tap water.
# As the investigational drug, the anti-ocular circulatory disturbance composition containing 0.5% (w/v) of amosulalol hydrochloride as obtained in Example 7 was used. As a control drug, physiological saline solution was used. […]
# The rabbit was placed in a retainer for rabbits and, after instillation of Mydrin P (Registered Trademark, Santen Pharmaceutical) for mydriasis and observation of the optic nerve head for any abnormality, general anesthesia was introduced by injecting urethane (dissolved in distilled water to 20% concentration), 1 g/kg, subcutaneously in the abdominal region. […] The half-life (T1/2) was determined from the line and the blood flow was calculated by means of Kety's theoretical formula (Journal of Clinical Investigate, 27, 476-483, 1948). […]
# [2] = test system: mice; settings: cited from earlier work
smiles,measurement,setting,value
"COc1ccccc1OCCNCC(O)c1ccc(C)c(S(N)(=O)=O)c1 (stereo not drawn) [amosulalol hydrochloride, 5-{1-hydroxy-2-[2-(2-methoxyphenoxy)ethylamino]ethyl}-2-methylbenzenesulfonamide]",inhibition of the ET-1-induced decrease in blood flow,[1],inhibited
same,acute toxicity,[2]; intravenous administration,very low
same,acute toxicity,[2]; oral administration,very low
